These results are taken from ChEMBL document CHEMBL1159231, “Cyathocaline, an Azafluorenone Alkaloid from Cyathocalyx zeylanica” (J Nat Prod, 1995).

Active and inactive are the calls of the source. No cut-off for these calls is given here.

For test [1], the system named is Saccharomyces cerevisiae. In words: DNA damaging activity against DNA repair rad 52Y gene-deficient yeast RS 322YK mutant assessed as drug level required to produce 12 mm zone of inhibition. The test is classed as functional.
In test [2] the test system is Saccharomyces cerevisiae. The test can be described thus: DNA damaging activity against DNA repair-deficient yeast RS 321N mutant assessed as drug level required to produce 12 mm zone of inhibition. The test is classed as functional.
The subject of test [3] is Saccharomyces cerevisiae. In words: DNA damaging activity against wild type DNA repair-proficient yeast RS 188N (RAD+) assessed as drug level required to produce 12 mm zone of inhibition. The test is classed as functional.
For the next test, the system named is A549. In words: Cytotoxicity against human A549 cells. The test is classed as functional, cell-based.
The subject of test [4] is Saccharomyces cerevisiae. The test can be described thus: DNA damaging activity against DNA repair rad6 gene-deficient yeast RS 167N mutant. The test is classed as functional, organism-based.

Usually IC50 stands for the concentration that gives 50% inhibition. Turning to `COc1c(O)cc2c(c1O)-c1nccc(C)c1C2=O` [CYATHOCALINE], the IC12 in the test with Saccharomyces cerevisiae [1] is 90 µg/mL; with Saccharomyces cerevisiae [2] it was 87 µg/mL; in the test with Saccharomyces cerevisiae [3], more than 400 µg/mL. The molecule further returned a half-maximal inhibitory concentration (IC50) in the test on A549 of 8.5 µM. Moreover, in the test with Saccharomyces cerevisiae [4], the result was inactive.
